# Source: patent US20240327450A1, “GLUCOSE DERIVATIVES AND ANTICANCER AGENT USING SAME” (ORBIO CORPORATION, priority 2021, published 2024)
# Experiments:
# [1] = test system: nutritional deficit pancreatic cancer cells; details: Onodera, T. et al. J. Biol. Chem. 295, 16678-16690, 2020; cited from earlier work
# [2] = test system: mouse insulinoma MIN6 cells; assay: Viable cell activity by Calcein-AM fluorescence in MIN6 cells; type: cell-based; details: for cellular activity expressed as Calcein intensity: MIN6 cells at 5 DIV, 1,000 μM, vs negative control KRB; for cellular activity as assessed with Calcein: 30 minutes, vs KRB alone
# Description: Effects of E2-ADG (synthesized in Example 2) and E2-ALG (synthesized in Example 4) on proliferation of cells were examined. A pancreatic beta cell line (insulinoma) MIN6 from mouse pancreas (Miyazaki J. et al., Endocrinology 127: 126-132, 1990) was used as the cells, and all experiments were performed using early passage cells with a passage number of 10 or less.
# (§1) In this experiment, approximately 3,000 MIN6 cells per well were seeded in each well of a 96-well plate. When 5 DIV elapsed from initiation of culture, wells to which E2-ALG was administrated and wells to which E2-ADG was administrated were arranged in the same plate with minimal external disturbance, and administration was performed according to the previously established method (Sasaki, A. et al., Human Cell 2016, 29, 37-45). The E2-ALG was dissolved in a buffer to a concentration of 1,000 μM, administered to the MIN6 cells for 10 or 30 minutes, and then washed out with a buffer solution without the E2-ALG. Meanwhile, the E2-ADG at a concentration of 1,000 μM was administered in the same manner. Carbenoxolone was pre-dissolved in a buffer solution for the purpose of excluding uptake via Hemichannel and Gap junction (Sasaki, A. et al., Human Cell 2016, 29, 37-45).
# A change in cellular activity was assessed using a live cell marker Calcein-AM. The Calcein-AM is permeable to a cell membrane, and after entering a cell, an AM moiety is cleaved by an esterase activity of the cell to produce Calcein which emits green fluorescence. The Calcein-AM was applied to the MIN6 cells according to a conventional method, green fluorescence emitted by the cells was quantitatively measured using a confocal quantitative image cytometer CellVoyager CQ1 (Yokogawa Electric Corporation), and image analysis was performed using software attached to the CQ1. A difference between an E2-ALG administration group and an E2-ADG administration group was statistically compared using Stat View 5.0. The Bonferroni-Dunn test was used for the statistical comparison. A value shown by MIN6 cells at the same time as above in a Krebs-Ringer buffer (KRB) solution without E2-ALG or E2-ADG was used as a negative control.
# (§2) An administration test was performed in the same manner as in Example 5-1, except that M2-ADG (synthesized in Example 1) was used instead of E2-ADG, and M2-ALG (synthesized in Example 3) was used instead of E2-ALG. However, the M2-ADG or the M2-ALG was administered for 30 minutes after 4 DIV from initiation of culture, and a concentration of the M2-ADG or the M2-ALG was 10 μM, 100 μM, or 1,000 μM.
# [3] = test system: mouse insulinoma MIN6 cells; assay: Cell death by Propidium Iodide (PI) signal in MIN6 cells; type: cell-based; details: for occurrence of cell death (PI) / PI-positive cell death: MIN6 cells at 5 DIV, 1,000 μM; for occurrence of cell death (PI): both 10-minute and 30-minute administrations, vs negative control KRB; for effect on the cells (proportion of dead cells, PI) / cytotoxicity (PI) eliminated by PHT: MIN6 cells at 11 DIV; for effect on the cells (proportion of dead cells, PI) / proportion of dead cells expressed as a PI value / cytotoxicity (PI) eliminated by PHT: 90 minutes; for effect on the cells (proportion of dead cells, PI) / proportion of dead cells expressed as a PI value: vs KRB solution alone; for proportion of dead cells expressed as a PI value: MIN6 cells at 11 DIV, 1,000 μM; for cytotoxicity (PI) eliminated by PHT: compound 1,000 μM, PHT 150 μM
# Description: as §1
# An extent of occurrence of cell death was assessed using Propidium Iodide (PI), a red dye that is impermeable to a cell membrane. The PI was applied to the MIN6 cells simultaneously with the Calcein-AM. The principle of assessing cell death using PI is as follows. […] However, when the PI nonspecifically enters a cell due to loss of integrity of a cell membrane caused by deterioration of a cell state, the PI binds to a nucleus of the cell, causing the nucleus to emit red fluorescence. A degree of the red fluorescence was quantitatively measured using the CellVoyager CQ1, and image analysis was performed using the software attached to the CQ1. Additionally, the degree of occurrence of cell death was evaluated by statistically comparing the control group with the administration groups or the E2-ALG administration group with the E2-ADG administration group.
# Using MIN6 cells with a passage number of 10 or less, E2-ALG or E2-ADG was applied to the MIN6 cells at a concentration of 1,000 μM for 90 minutes at 11 DIV of culture at a time when spheroids with a diameter of 100 μm or more are normally formed. Specifically, approximately 1,000 MIN6 cells per well were seeded in each well of a 96-well plate and E2-ALG was dissolved in a buffer to a concentration of 10 μM or 1,000 μM at 11 DIV, administered to the MIN6 cells for 90 minutes, and then rapidly washed out with a buffer solution without E2-ALG. Similarly, E2-ADG was applied simultaneously to other wells in the same plate. A cell death marker PI was used to statistically compare a control group with administration groups or an E2-ALG administration group with an E2-ADG administration group (FIG. 3).
# Whether cell death in MIN6 cells caused by E2-ALG and E2-ADG was via a specific transport mechanism that is inhibited by PHT was analyzed on the same plate. […] The E2-ADG was also tested simultaneously in the same manner on the same plate and both were compared to a control.
# as §2
# colon cancer cells = details: Et3PAuCl alone; ACS Med. Chem. Lett. 8: 997-1001, 2017; cited from earlier work
# [4] = MIN6 cells at 4 DIV, 10 μM, 30 minutes, vs negative control
# [5] = MIN6 cells at 4 DIV, 100 μM, 30 minutes, vs negative control
# [6] = MIN6 cells at 4 DIV, 1,000 μM, 30 minutes
structure (smiles),measurement,setting,value
CC(=O)OC[C@H]1O[C@@H]([S-])[C@H](OC(C)=O)[C@@H](OC(C)=O)[C@@H]1OC(C)=O.CCP(CC)CC.[Au+] [Auranofin],effect in nutritional deficit pancreatic cancer cells,[1],effective
CCP(CC)CC.OC[C@@H]1OC(O)[C@@H]([S][Au])[C@H](O)[C@H]1O (stereo partly drawn) [Compound E2-ALG],cellular activity expressed as Calcein intensity,[2]; 10-minute administration,"slightly decreased an average value of the cellular activity compared to the negative control group, but there was no statistically significant difference"
same,cellular activity expressed as Calcein intensity,[2]; 30-minute administration,the cellular activity was clearly decreased compared to the negative control
same,occurrence of cell death (PI),[3],no statistically significant difference
same,"effect on the cells (proportion of dead cells, PI)",[3]; 10 μM,"larger than that of the negative control (the KRB solution alone) as an average value, but not significantly different"
same,proportion of dead cells expressed as a PI value,[3],significant increase in a proportion of dead cells
same,cytotoxicity (PI) eliminated by PHT,[3],approximately 75%
"CC[PH](CC)(CC)[Au][S][C@@H]1OC(CO)[C@@H](O)[C@H](O)C1O (stereo partly drawn) [DGG, reference compound]",PI-positive cell death,[3]; 10 minutes,more PI-positive cell death than the negative control
same,PI-positive cell death,[3]; 30 minutes,distinct PI-positive cell death
"CCP(CC)CC.[Au+].[Cl-] [Et3PAuCl, chloro(triethylphosphine)gold(I)]",cytotoxicity to colon cancer cells,colon cancer cells,cytotoxic
"CC[PH](CC)(CC)[Au][S][C@H]1O[C@@H](CO)[C@H](O)[C@@H](O)[C@@H]1O [LGG, reference compound]",PI-positive cell death,[3]; 10 minutes,PI-positive cell death comparable to that of the negative control
same,PI-positive cell death,[3]; 30 minutes,only about as much PI-positive cell death as a negative control group
CP(C)C.OC[C@H]1OC(O)[C@H]([S][Au])[C@@H](O)[C@@H]1O (stereo partly drawn) [Compound M2-ADG],cellular activity as assessed with Calcein,"[2]; MIN6 cells at 4 DIV, 10 μM",no significant difference in cellular activity
same,cellular activity as assessed with Calcein,"[2]; MIN6 cells at 4 DIV, 100 μM",no significant difference in cellular activity
same,cellular activity as assessed with Calcein,"[2]; MIN6 cells at 4 DIV, 1,000 μM",significant decrease in cellular activity
same,degree of cell death (PI),[3]; [4],no difference in a degree of cell death
same,degree of cell death (PI),[3]; [5],"an average value increased, but there was still no significant difference from the negative control"
same,degree of cell death (PI),[3]; [6],clear cell death was observed
CCP(CC)CC.OC[C@H]1OC(O)[C@H]([S][Au])[C@@H](O)[C@@H]1O (stereo partly drawn) [Compound E2-ADG],cellular activity expressed as Calcein intensity,[2]; 10-minute administration,"slightly lower than that for the E2-ALG, but there was no statistically significant difference therebetween"
same,cellular activity expressed as Calcein intensity,[2]; 30-minute administration,clear decrease in cellular activity
same,occurrence of cell death (PI),[3],no statistically significant difference
same,"effect on the cells (proportion of dead cells, PI)",[3]; 10 μM,"larger than that of the negative control (the KRB solution alone) as an average value, but not significantly different"
same,proportion of dead cells expressed as a PI value,[3],significant increase in a proportion of dead cells
same,cytotoxicity (PI) eliminated by PHT,[3],approximately 75%
CP(C)C.OC[C@@H]1OC(O)[C@@H]([S][Au])[C@H](O)[C@H]1O (stereo partly drawn) [Compound M2-ALG],cellular activity as assessed with Calcein,"[2]; MIN6 cells at 4 DIV, 10 μM",no significant difference in cellular activity
same,cellular activity as assessed with Calcein,"[2]; MIN6 cells at 4 DIV, 100 μM",no significant difference in cellular activity
same,cellular activity as assessed with Calcein,"[2]; MIN6 cells at 4 DIV, 1,000 μM",significant decrease in cellular activity
same,degree of cell death (PI),[3]; [4],no difference in a degree of cell death
same,degree of cell death (PI),[3]; [5],"an average value increased, but there was still no significant difference from the negative control"
same,degree of cell death (PI),[3]; [6],clear cell death was observed
